This test has as its target influenza virus NA (Influenza A virus, UniProt Q6DPL2). It is filed as biochemical. To be noted: single replicates (3).

This is an account of results in article PMC4980783 (Chemistry Central Journal, 2016).

Values joined by “and” are separate entries in the source; they are usually repeats but may differ in a detail not shown here. Equal entries are not always repeated. Where two headings read alike, the source gives them in different places.

Chain of influenza virus NA (Q6DPL2 whole entry, looked up): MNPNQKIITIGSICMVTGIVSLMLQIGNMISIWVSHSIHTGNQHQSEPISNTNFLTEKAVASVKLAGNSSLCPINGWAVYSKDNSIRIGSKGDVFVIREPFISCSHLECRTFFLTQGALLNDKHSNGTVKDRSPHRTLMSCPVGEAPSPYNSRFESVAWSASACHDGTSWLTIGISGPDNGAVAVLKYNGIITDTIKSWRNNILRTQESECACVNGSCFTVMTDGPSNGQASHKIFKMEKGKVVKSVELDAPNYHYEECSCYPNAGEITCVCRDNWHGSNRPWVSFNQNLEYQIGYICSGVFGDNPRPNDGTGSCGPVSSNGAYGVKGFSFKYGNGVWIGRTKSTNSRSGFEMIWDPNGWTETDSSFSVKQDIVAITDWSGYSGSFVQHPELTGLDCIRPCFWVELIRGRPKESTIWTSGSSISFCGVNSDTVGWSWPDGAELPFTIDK

On to `CC(=O)N[C@H]1[C@H]([C@H](O)[C@H](O)CO)OC(C(=O)O)=C[C@@H]1N=C(N)N` [Zanamivir, zanamivir], for which the inhibition rates was 100.00 and 99.40 and 99.96 (first line per compound); 44.04 and 41.05 (second line per compound, presumably 5-fold diluted (Sheet1)); 17.05 and 17.04 and 19.04 (third line per compound).
